From patent US10246488B2, “Use of inhibitory peptides for the treatment of inflammatory diseases” (Yeda Research and Development Co. Ltd., priority 2013, dated 2019)
Blank lines part the entries; values can stand above or below the substance they belong to. Ends that are not written are not given here. * marks the point of attachment. Myristoyl = CCCCCCCCCCCCCC(=O)*

How the values were obtained:
[1] = biological target: T1, interaction of JNK1/2 and p38α/β with Imp7 (Homo sapiens, UniProt O95373); test: Co-immunoprecipitation of MAPKs with importins from extracts of treated HeLa cells; format: cell-based; settings: for Imp7/9 interactions of the MAPKs examined (JNK1/2 and p38α/β), Co-IP: HeLa cells, peptide 10 μM applied prior to stimulation, Anisomycin 0.5 μg/ml; for interaction of p38 with Imp7 (CoIP): HeLa cells pre-incubated with modified peptide 2 hours, anisomycin 0.5 μg/ml 15 min
T1 construct: endogenous in cells; host or cells: HeLa
Description: (§1) HeLa cells were grown on slides to 70% confluence, serum starved (0.1% FBS, 16 hrs), and then either incubated with the inhibitory peptide (Peptide, 10 μM) or scrambled peptide (Scr peptide, 10 μM), cells were then treat with Anisomycin (Anis, 0.5 μg/ml) or left untreated (NT). Cells were fixed, and stained with anti JNK1, JNK2, p38α or p38β Abs as indicated, and DAPI to detect nuclei. The slides were visualized using a fluorescent microscope. […] HeLa cells were grown to 70% confluence, serum starved (0.1% FBS, 16 hrs), and then either incubated with the inhibitory peptide (Peptide, 10 μM), scrambled peptide (Scr peptide, 10 μM), or DMSO, followed by treatment with Anisomycin (Anis, 0.5 μg/ml) or mock control (NT). Cell extracts were then subjected to Co-IP with anti JNK1, JNK2, p38α, p38β Abs. The interacting Imp7 was detected by Western blot with the indicated anti Imps Abs. Amount of IPed MAPKs was detected by the anti JNK1, JNK2, p38α and p38β Abs as indicated.
(A) Myristiolated peptide was modified (replacement of 3 residues to alanin) Myr-KPERYQNLSPVGSGA—SEQ ID NO: 9; Myr-KPERYQNLSPVAAAA—SEQ ID NO: 10. (B) Hela cells were pre-incubated with modified peptide (2 hours) then either stimulated with anisomycin (Anis, 0.5 μg/ml, 15 min) or left untreated. Cell extracts were then subjected to CoIP with anti p38a . The interacting Imp7 or IPed p38 were detected by Western blot with indicated Abs.
Co-Immunoprecipitation: HeLa cells were grown to subconfluency, serum-starved (0.1% FBS for 16 h) and then stimulated or treated with other drugs. Cell extracts were produced as previously described and incubated for 2 hours (4° C., with rotation) with A/G-agarose beads (Santa Cruz Biotechnology) pre-linked with specific Abs (1 hrs, 23° C.). The bound A/G beads were washed three times with ice-cold washing buffer. The IPed beads were then resuspended with 1.5× sample buffer and boiled; the resolved proteins were analyzed by Western blotting with the indicated Abs.
CoIP: Cell extracts were produced and incubated for 2 hr (4° C., with rotation) with A/G-agarose beads pre-linked with specific Abs (1 hr, 23° C.). The bound A/G beads were washed, resuspended (1.5× sample buffer), boiled and subjected to Western blotting.

[2] = test system: JNK1/2 and p38α/β; test: Immunofluorescence of stimulated nuclear translocation of JNK1/2 and p38α/β in HeLa cells; format: cell-based; settings: for stimuli-dependent nuclear translocation of JNK1/2 and p38α/β: HeLa cells, peptide 10 μM applied prior to stimulation, Anisomycin 0.5 μg/ml
Description: FIGS. 2A-2C illustrate that Imp3, 7 and 9 are required for JNK and p38 translocation and induced transcription. (A) Si RNAs of Imp3, 7, 9, but not Imp5, inhibit the stimulated JNK and p38 nuclear translocation. HeLa cells were grown on cover slides to 30% confluence. si RNAs of the indicated Imps and si Control supplied by the company (si Scr, negative control) were then transfected to the cells using Dharmafect according to the manufacturer's instructions. Forty eight hrs after transfection, the cells were serum starved, then either stimulated with Anisomycin (0.5 μg/ml, 15 min), or left untreated (NT) as indicated. The cells were then fixed, stained using the indicated (left) anti MAPK Abs and visualized using a fluorescent microscope. (B) Quantification of JNKs/p38s nuclear localization prior and upon stimulation. Data shown represents mean±S.E. The significance of Imp3 vs. Imp7/Imp9 (*) was p<0.0003. The significance of stimulated Imp3/7/9 vs Scr was p<0.00001 (C) Si RNA of Imp3, 7, 9 inhibit the activation of downstream transcription factor targets of JNKs/p38s. HeLa cells were transfected with si RNAs of the indicated Imps and si control supplied by the manufacturer (si Scr, negative control) using Dharmafect according to the manufacturer instructions. Forty eight hrs after transfection, the cells were serum starved, and then stimulated with Anisomycin (Anis 0.5 μg/ml) for the indicated times or left untreated (NT). Cell extracts were subjected to a Western blot analysis with anti pJUN, pMEF2A, pATF2, indicated Imps, and tubulin Abs.
as §1, with “indicated. […]” for “indicated.”
FIGS. 19A-19C illustrate that myristoylated peptides inhibit the stimulation dependent nuclear translocation of p38. […] The nuclei were detected using DAPI and slides were visualized using a spinning disc confocal microscope (Zeiss, ×100 magnification). […]

[3] = test system: MAPKs; test: Western blot of stimulation-dependent activation of MAPKs in HeLa cells; format: cell-based; settings: HeLa cells pre-incubated with peptide, Anisomycin 0.5 μg/ml or TPA 250 nM
Description: HeLa cells were grown to 70% confluence, serum starved and pre-incubated with either new peptide (NP), peptide or scrambled peptide and then either stimulated with Anisomycin (Anis 0.5 μg/ml), TPA (250 nM) or left untreated (NT). Cell extracts were produced and subjected to Western blot analysis with the indicated Abs.

[4] = test system: DSS-induced Colitis; test: DSS-induced colitis model; format: in vivo; settings: male C57BL mice, 15 mg/Kilo I.V every 48 hours, DSS 1.25% in drinking water, 7 days, compared with control peptide
Description: FIGS. 17A-17C illustrate the use of inhibitory peptide as a potential therapeutic agent in colitis model. 21 male C57BL mice treated (I.V every 48 hours) with either peptide (15 mg/Kilo), scramble peptide (15 mg/Kilo) or DMSO (2%). Colitis was induced using DSS (1.25% in drinking water) and mice were sacrificed 7 days post induction. (A-C). Colitis was evaluated using endoscopic imaging and scored for the number of lesions in the colon and weight of mice.
In vivo experiment: 21 male C57BL mice were weighed then injected (I.V) with either peptide (15 mg/Kilo), scramble peptide (15 mg/Kilo) or DMSO (2%). Twenty-four hours post injection drinking water of the mice was replaced with water containing DSS (1.25%), peptide, scramble peptide or DMSO were injected every forty-eight hours. Mice were sacrificed seven days post replacement of drinking water, and colitis was assessed using endoscopy and weight of mice.

[5] = listed as 14 amino acid myristoylated peptide

T1 sequence (O95373 whole entry): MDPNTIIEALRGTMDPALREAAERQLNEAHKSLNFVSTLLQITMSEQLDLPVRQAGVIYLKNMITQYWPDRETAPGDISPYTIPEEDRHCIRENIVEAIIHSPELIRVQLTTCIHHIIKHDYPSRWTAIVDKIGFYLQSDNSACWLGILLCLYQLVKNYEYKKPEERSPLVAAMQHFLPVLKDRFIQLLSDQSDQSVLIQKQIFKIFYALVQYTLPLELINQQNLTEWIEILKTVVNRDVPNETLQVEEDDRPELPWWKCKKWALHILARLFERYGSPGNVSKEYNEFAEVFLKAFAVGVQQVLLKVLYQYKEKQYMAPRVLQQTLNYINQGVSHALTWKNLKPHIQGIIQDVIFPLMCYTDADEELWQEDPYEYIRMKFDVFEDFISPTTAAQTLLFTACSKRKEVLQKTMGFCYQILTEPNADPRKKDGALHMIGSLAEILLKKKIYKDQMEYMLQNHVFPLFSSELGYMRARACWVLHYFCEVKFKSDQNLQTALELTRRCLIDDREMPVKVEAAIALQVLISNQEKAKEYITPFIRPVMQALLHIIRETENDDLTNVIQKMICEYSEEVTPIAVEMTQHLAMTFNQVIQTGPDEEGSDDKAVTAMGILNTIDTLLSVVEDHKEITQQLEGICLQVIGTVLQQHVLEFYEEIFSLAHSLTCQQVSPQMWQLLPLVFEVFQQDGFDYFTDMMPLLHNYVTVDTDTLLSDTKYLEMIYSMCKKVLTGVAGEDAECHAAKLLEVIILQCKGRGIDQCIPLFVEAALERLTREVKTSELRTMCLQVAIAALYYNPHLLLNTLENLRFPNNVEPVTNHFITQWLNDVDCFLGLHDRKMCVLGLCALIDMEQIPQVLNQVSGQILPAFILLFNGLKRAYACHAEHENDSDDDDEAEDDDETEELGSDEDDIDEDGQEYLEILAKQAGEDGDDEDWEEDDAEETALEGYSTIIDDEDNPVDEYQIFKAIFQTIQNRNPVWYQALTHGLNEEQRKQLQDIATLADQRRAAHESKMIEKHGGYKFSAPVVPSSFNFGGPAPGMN

- Imp7/9 interactions of the MAPKs examined (JNK1/2 and p38α/β), Co-IP [1]: prevented
- Imp7/9 interactions of the MAPKs examined (JNK1/2 and p38α/β), Co-IP [1, 5]: prevented
- Imp7/9 interactions of the MAPKs examined (JNK1/2 and p38α/β), Co-IP ([1]; listed as inhibitory peptide): inhibits the interaction
Substance: Myr-PERYQNLSPVGSGA (Myristoyl-PERYQNLSPVGSGA) [14 amino acid myristoylated peptide based on residues 21-34 of p38α]
- stimuli-dependent nuclear translocation of JNK1/2 and p38α/β [2]: prevented the nuclear translocation
- stimuli-dependent nuclear translocation of JNK1/2 and p38α/β [2, 5]: prevented the nuclear translocation
- stimuli-dependent nuclear translocation of JNK1/2 and p38α/β ([2]; listed as inhibitory peptide): inhibits the stimuli-dependent nuclear translocation

- interaction of p38 with Imp7 (CoIP) [1]: blocks the interaction
- interaction of p38 with Imp7 (CoIP) ([1]; listed as newly designed peptide): inhibited
Substance: Myr-KPERYQNLSPVAAAA (Myristoyl-KPERYQNLSPVAAAA) [myristoylated peptide modified by replacement of 3 residues to alanin]
- stimulation-dependent activation (kinase activity) of MAPKs [3]: without affecting
- stimulation-induced nuclear translocation of JNK and p38 MAPKs ([2]; HeLa cells pre-incubated with peptide, Anisomycin 0.5 μg/ml 15 min, spinning disc confocal microscope): prevented

Substance: Myr-KPERYQNLSPVGSGA (Myristoyl-KPERYQNLSPVGSGA)
- DSS-induced Colitis (average weight loss and number of lesions in the colon) [4]: reduced DSS-induced Colitis
